Data taken from US20240189278A1, “NOVEL COMPOUNDS AND METHODS FOR INCREASING KLOTHO GENE EXPRESSION” (Klotho Therapeutics, Inc., priority 2017, published 2024).

Tests used:
Assay type in all cases: in vivo, mouse
DNA methyltransferase = DNA methyltransferase activity in aged mice; settings: 2 weeks treatment
Description: (§1) Animal study protocols. This example was performed according to the guide lines of the National Institute of Health on the care and use of laboratory animals and approved by the institutional Animal Care and Use Committee of University of Oklahoma Health Science Center. AU mice were housed in cages at room temperature (2S±PC) and were provided with Purina laboratory chow No 5001) and tap Water and lithium. 6 adult mice (12 months) and 20 old mice (24-26 months) mice were next in this study. The old (aged) mice were randomly divided into three subgroups and each group had 6 or 7 mice. […] The third group received no treatment Blood pressure was measured before and after treatment with the active agent at 1 week and 2 week. Pulse wave velocity (PWV) was measured after 2 weeks treatment with active agent all animals were sacrificed and perfused transcardially with PBS under deep anesthesia (ketamine xylazine, 90/10 mg, IP). […]
(§2) Measurement of DNA Demethylase and DNA Methylation force Activity. The DNA demethylase and DNA methyltransferase activity was measured by using DNA demethylase activity qualification kit (Abeam˜Cambridge, MA) and methyltransferase coloritnetxic assay kit (Cayman Chemical Company, Ann Arbor, Michigan). […] The absorbance was read at […] for DNA methylene activity assay and 510 nm for DNA methyltransferase activity using BioTeck Multi-Mole Microplate Readers.

MMP9 [1] = test: Western blot of MMP9, aortas of aged mice
Description: (§3) Animal study protocols. This example was performed according to the guide lines of the National Institute of Health on the care and use of laboratory animals and approved by the institutional Animal Care and Use Committee of University of Oklahoma Health Science Center. AU mice were housed in cages at room temperature (2S±PC) and were provided with Purina laboratory chow No 5001) and tap Water and lithium. 6 adult mice (12 months) and 20 old mice (24-26 months) mice were next in this study. The old (aged) mice were randomly divided into three subgroups and each group had 6 or 7 mice. One subgroup received compound H (10 mg/kg/day1, IP, Enamine LLC, Monmouth Jct., NJ) and one group received an equal volume of DMSO (dimethyl sulfoxide, 5%) and served as a control. The third group received no treatment Blood pressure was measured before and after treatment with the active agent at 1 week and 2 week. Pulse wave velocity (PWV) was measured after 2 weeks treatment with active agent all animals were sacrificed and perfused transcardially with PBS under deep anesthesia (ketamine xylazine, 90/10 mg, IP). […]
(§4) Western Blot Analysis: Protein samples from the thoracic aorta were prepared in Lysis buffer as described previously. […] Protein abundance on western blots was quantified densitometry using Image lab software (Bio-Rad, Hercules, CA).

eNOS = test: Western blot of eNOS and p-eNOS, aortas of aged mice
Description: (§5) Animal study protocols. This example was performed according to the guide lines of the National Institute of Health on the care and use of laboratory animals and approved by the institutional Animal Care and Use Committee of University of Oklahoma Health Science Center. AU mice were housed in cages at room temperature (2S±PC) and were provided with Purina laboratory chow No 5001) and tap Water and lithium. 6 adult mice (12 months) and 20 old mice (24-26 months) mice were next in this study. The old (aged) mice were randomly divided into three subgroups and each group had 6 or 7 mice. One subgroup received compound H (10 mg/kg/day1, IP, Enamine LLC, Monmouth Jct., NJ) and one group received an equal volume of DMSO (dimethyl sulfoxide, 5%) and served as a control. The third group received no treatment Blood pressure was measured before and after treatment with the active agent at 1 week and 2 week. Pulse wave velocity (PWV) was measured after 2 weeks treatment with active agent all animals were sacrificed and perfused transcardially with PBS under deep anesthesia (ketamine xylazine, 90/10 mg, IP). The aortas were then quickly removed, washed and cut into pieces for subsequent analyses.
(§6) Western Blot Analysis: Protein samples from the thoracic aorta were prepared in Lysis buffer as described previously. The proteins ([…] were resolved by SOS-PAGE and transferred to a nitrocellulose membrane (Bio-Rad). The membrane was then incubated overnight (4° C.) with a primary antibody against collagen-1-elastin. M1′v1P2; MMP9, ALP (Abeam1 1:1000), TGF-1, TGF˜N3 (Santa Cmz, 1:100). RUX2, or aNTulmliu (Cell Signaling. 1:1000). Goat autimouse or goat anti rabbit horseradish peroxidase (1:2000 . . . 1:5,000; Santa Cruz Biotechnology) was used as a secondary antibody find incubated for 1 hour at room temperature. Specific proteins were detected by chemiluminescent methods using Amersham™ western blotting detection reagents (GE Healthcare, UK). Protein abundance on western blots was quantified densitometry using Image lab software (Bio-Rad, Hercules, CA).

MMP9 [2] = test: MMP9 activity by zymogram PAGE, aortas of aged mice; settings: zymography
Description: as §3
Measurements for MMP2 and MMP9 Activity. MMP2 and MMP9 activity were measured by Zymogram PAGE (Bio˜-Rad). Briefly Lysates from thoracic aorta were quantified using BCA assay (Pierce) and prepared under non-reducing, non-denaturing conditions. […]

full-length Klotho = test: Western blot of full-length Klotho in kidney of aged mice; settings: kidney of 24-26 month-old mice
MMP2 = test: Western blot of MMP2, aortas of aged mice
Description: as §3, §4

aged mice = test: Blood pressure by VPR tail-cuff method in aged mice
Description: as §5
Measurement of Blood Pressure: Blood pressure was measured by the volume-pressure recording (VPR) tail-cuff method with slight (28° C.) but not heating of the tail using it CODA none-invasive blood pressure monitoring system (Kent Scientific). This method of measurement has been validated by using a telemetry system. Animals were gently handled and trained for the VPR tail-cuff measurement to minimize handling stress. No signs of stress were observed during BP measurements. The operator was also strictly trained for the measurement procedure. At least 20 stable cycles data were obtained for the result analysis for each measurement.

ALP = test: Western blot of ALP, aortas of aged mice
Description: as §3, §4

TGF-β3 = test: Western blot of TGF-β3, aortas of aged mice
Description: as §3, §4

secreted Klotho = test: Western blot of secreted Klotho in kidney and serum of aged mice
SIRT1 = test: Western blot of SIRT1 and acetyl p53, aortas of aged mice
Description: as §3, §4

AMPK = test: Western blot of AMPK and p-AMPK, aortas of aged mice
Description: as §5, §6

DNA demethylase = DNA demethylase activity in aged mice; settings: 2 weeks treatment
Description: as §1, §2

RUNX2 = test: Western blot of RUNX2, aortas of aged mice
Description: as §3, §4

[3] = 10 mg/kg/day IP, 2 weeks treatment

O=C(Nc1ccccc1Cl)c1c[nH]c2ccccc12 [active agent, N-(2-chlorophenyl)-Ul-indde-3-carboxamide]
did not affect: DNA methyltransferase activity (DNA methyltransferase) | Full-length Klotho expression (full-length Klotho) | SIRT1 expression (SIRT1; aortas of aged mice)
markedly increased: Circulating levels of secreted Klotho (secreted Klotho; serum of aged mice)
significantly increased: Secreted Klotho protein expression (secreted Klotho; kidney of 24-26 month-old mice)
decreased: MMP9 protein expression (MMP9 [1]) | MMP9 activity (MMP9 [2]) | MMP2 protein expression (MMP2) | Diastolic blood pressure (aged mice; [3]) | Mean blood pressure (aged mice; [3]) | Pulse pressure (aged mice; [3]) | Systolic blood pressure (aged mice; [3]) | Blood pressure (aged mice; after 1 week of treatment) | ALP expression (ALP) | TGF-β3 expression (TGF-β3) | RUNX2 expression (RUNX2)
increased: eNOS activity (eNOS; aortas of aged mice) | eNOS expression (eNOS; old mice, western blot) | p-eNOS expression (eNOS; old mice, western blot) | SirT1 activity (deacetylation of p53) (SIRT1; aorta of old mice) | AMPK activity (AMPK; aortas of aged mice) | AMPK expression (AMPK; old mice, western blot) | p-AMPK expression (AMPK; old mice, western blot) | DNA demethylase activity (DNA demethylase)
